The source of these data is patent US7049334B2, “Enhancement of learning and memory and treatment of amnesia” (priority 2001, dated 2006).

The test system of assay [1] is cortico-amygdala pathway (lateral amygdala). The assay can be described thus: LTP in cortico-amygdala pathway (fEPSP). The settings on record: three trains (100 Hz, 1 sec at 3 min interval); in the presence of compound 1; n=4. It counts as cell-based, Wistar rats. On the procedure:
After decapitation, brains of either adult ([…], for the induction of long-term potentiation) or young (2–3 weeks old, for the induction of long-term depression) Wistar rats were rapidly removed, and the hippocampus was dissected out. Transverse hippocampal slices (450 μm thickness) were immediately placed in an ice-cold cutting buffer containing 124 mM NaCl, 3 mM KCl, 1.0 mM Na2HPO4, 25 mM NaHCO3, 0.5 mM CaCl2, 5.0 mM MgSO4, 10 mM glucose, saturated with 95% O2 and 5% CO2. The slices were then maintained in an interface chamber at room temperature, and perfused at flow rate of 1–2 mL/min with artificial cerebrospinal fluid (ACSF). […] The test pulse duration was 100 μsec, and test responses were elicited at 0.02 Hz. To record field potentials in the cortico-amygdala pathway, a stimulating electrode was placed in the external capsule, which contained fibers from the auditory cortex to the lateral amygdala. Bicuculine (10 μM) was present in the perfusion solution when the fEPSPs of amygdala were recorded. […] Evoked fEPSPs were recorded and data were analyzed. The initial slope of the fEPSPs was calculated, and the data were expressed as percentages of the average of the base-line slope of the fEPSPs. […]

The test system of assay [2] is hippocampal slices taken from young rats. The assay can be described thus: Plasticity induced by low-frequency stimulation (LTD) in hippocampal slices. It counts as cell-based, Wistar rats. On the procedure: After decapitation, brains of either adult ([…], for the induction of long-term potentiation) or young (2–3 weeks old, for the induction of long-term depression) Wistar rats were rapidly removed, and the hippocampus was dissected out. Transverse hippocampal slices (450 μm thickness) were immediately placed in an ice-cold cutting buffer containing 124 mM NaCl, 3 mM KCl, 1.0 mM Na2HPO4, 25 mM NaHCO3, 0.5 mM CaCl2, 5.0 mM MgSO4, 10 mM glucose, saturated with 95% O2 and 5% CO2. The slices were then maintained in an interface chamber at room temperature, and perfused at flow rate of 1–2 mL/min with artificial cerebrospinal fluid (ACSF). The composition of ACSF contained 124 mM NaCl, 4.4 mM KCl, 1.0 mM Na2HPO4, 25 mM NaHCO3, 2.0 mM or 2.5 mM CaCl2, 1.0 mM MgSO4, 10 mM glucose, gassed with 95% O2 and 5% CO2. The field Excitatory Postsynaptic Potentials (fEPSP) was evoked by test pulses through a bipolar stimulating electrode placed on the Schaffer collateral/commissural pathway, and recorded from the stratum radiatum of CA1 using a glass micropipette electrode (5–10 MΩ) filled with 2 M NaCl. The test pulse duration was 100 μsec, and test responses were elicited at 0.02 Hz. To record field potentials in the cortico-amygdala pathway, a stimulating electrode was placed in the external capsule, which contained fibers from the auditory cortex to the lateral amygdala. Bicuculine (10 μM) was present in the perfusion solution when the fEPSPs of amygdala were recorded. To increase the effectiveness of fused pyrazolyl compounds that were applied through the perfusion system, the ACSF level in the recording chamber was sufficiently high to cover the hippocampal slices but not to float them. All fused pyrazolyl compounds were perfused in ACSF.
Evoked fEPSPs were recorded and data were analyzed. The initial slope of the fEPSPs was calculated, and the data were expressed as percentages of the average of the base-line slope of the fEPSPs.
Compound 1 on plasticity induced by low-frequency stimulation (LFS): LFS (900 pulses at 1 Hz) was delivered to hippocampal slices taken from young rats ([…]) to induce long-term depression (LTD). Stimulation of hippocampal slices at 1 Hz for 3 min produced no LTD of synaptic transmission. However, this short-duration LFS induced significant LTD in the presence of Compound 1 (83.4±10.9%, n=3). […] A weaker electrical stimulation at 0.02 Hz was delivered in the presence of both nitric oxide donor nitroprusside ([…]) and Compound 1 (1.6 μM). Simultaneous perfusion of the nitric oxide donor nitroprusside (30 μM) and Compound 1 (1.6 μM) induced LTD.

Consider `OCc1ccc(-c2nn(Cc3ccccc3)c3ccccc23)o1` [Compound 1, 1-benzyl-3-(5′-hydroxymethyl-2′-furyl)-indazole], for which the “duration of enduring LTP in amygdala” value in assay [1] was “at least 1 hr”. In assay [2] (1.6 μM perfused for 15 min during LFS (900 pulses at 1 Hz)), the “plasticity with perfusion during LFS” value is on record as “reversed the LTD plasticity into LTP”. Besides, the “potentiation of fEPSP at 0.02 Hz stimulation, substance alone” value in assay [2] (0.02 Hz stimulation, alone) is recorded as “produced no potentiation”. Further, the “plasticity at 0.02 Hz with nitric oxide donor nitroprusside” value in assay [2] (0.02 Hz stimulation, simultaneous perfusion of nitroprusside (30 μM) and Compound 1 (1.6 μM)) was “induced LTD”. For the same molecule, the “fEPSP (LTD) after short-duration LFS” value in assay [2] (1 Hz for 3 min, in the presence of Compound 1, young rats) stood at 83.4±10.9%.
